This is an account of results in US20210052492A1, “Cannabinoid Dosing Regime For Psoriasis” (Botanix Pharmaceuticals Ltd., priority 2018, published 2021).

A short description of the data set: Skin permeation of CBD in a Franz-type diffusion cell. The note with it: 5 ul of 5.0% w/w CBD formulation, 48-hour exposure. It counts as in vitro ADME. How it is done: Dermatomed skin from a single donor was mounted in a Franz-type diffusion cell (0.55 cm^2 receptor fluid exposure surface area) and dosed with 5 ul of CBD formulated in an mixture of a volatile solvent (hexylmethyldisiloxane/polymethylsiloxane—93% w/w), and residual solvent (arlamol E—2% w/w) at a concentration of 5.0% (w/w; 35.5 mg/ml). Following dosing, receptor phase samples were collected at 4, 10, 24 and 48 hours; after which the study was terminated.
The residual formulation was removed by tape stripping and the epidermis and dermis separated by blunt dissection. The levels of CBD in the epidermis, dermis, and receptor fluid samples were then analyzed using a bioanalytical method with LC-MS/MS detection.

For `C=C(C)C1CCC(C)=CC1c1c(O)cc(CCCCC)cc1O` (centres unmarked) [CBD, 2-[3-methyl-6-(1-methylethenyl)-2-cyclohexen-1-yl]-5-pentyl-1,3-benzenediol], the “skin permeation through to the receptor phase, % of applied dose” value is on record as “less than 0.081%” and the “skin permeation, amount in the receptor phase” value is less than 278 ng/cm^2.
